Results: patent publication US8637493B2, “Methods for treating glioblastoma” (University of Massachusetts, priority 2009, dated 2014)

Tests used:
[1] = tested on: U87NS-pMIG; experiment: Neurosphere recovery assay, empty vector U87NS-pMIG; format: cell-based, human; settings: empty vector control
Method: Neurosphere cultures were dissociated to single cell suspensions by pH dissociation followed by filtration through 40 μm screens. For the neurosphere assay, 3,000 cells/ml of defined medium were seeded in 6-well plates. Immediately after plating, cells were treated with DMSO (Research Organics, Cleveland, Ohio) carrier control, TMZ-only, DAPT-only, or TMZ+DAPT. Additional DAPT was added on days 2 and 4. Neurospheres consisting of 10 or more cells were counted under a light microscope on day 7 for the converted cell lines. Primary lines have a slightly longer doubling time and were counted on day 10. After counting the neurospheres from the initial treatment, 2 ml of fresh defined medium was added to each well. DAPT was also added once more to the DAPT-only and TMZ+DAPT samples, and the cells were incubated for an additional 7 or 10 days. Neurospheres from the recovery period were counted on day 14 or day 20. To analyze secondary neurosphere formation, cells were collected, pelleted and dissociated to a single cell suspension by the pH method. Cells from each well were re-seeded into 6-well plates with 2 ml of defined medium. The number of secondary neurospheres formed by converted cell lines and primary cultures were counted on day 21 or day 30, respectively. All recovery assays were repeated with a minimum of 6 replicate sets of time points. […]

[2] = tested on: U87NS xenografts; experiment: In vivo treatment of pre-existing subcutaneous U87NS xenografts; set-up: species or system nude mice
Method: We tested the effect of in vivo TMZ+GSI treatments on pre-existing subcutaneous glioma xenografts. […] When the tumor reached approximately 150 mm^3 (volume=([…])(π)(length/2)(width/2)^2), we began the following treatments: 1) DMSO control: two days of 100 μl DMSO/PBS (1:1) intraperitoneal (i.p.) injections; 2) TMZ-only: injections of TMZ (20 mg/kg) in 100 μl DMSO/PBS on days one and two; 3) LY chow-only: two days of 100 μl DMSO/PBS i.p. injections. […] The mice were fed LY chow from day 3 to 12.

[3] = tested on: U87NS, U373NS, GS7-2 and GS8-26; experiment: Neurosphere recovery assay, initial neurospheres, range over all cultures; format: cell-based, human; settings: day 7 or 10
Method: To determine the effects of TMZ plus DAPT neurospheres, cells were plated as previously described (Mihaliak et al., Cancer Letts. 296, 168-177 (2010)). Immediately after plating, cells were treated with DMSO, DAPT-only, LY411,575 (LY)-only TMZ-only, TMZ+DAPT or TMZ+LY. The initial neurospheres were counted on day 7 for the converted cell lines and on day 10 for the slower growing primary lines. Neurosphere recovery was measured on day 14 or 20. The neurospheres were dissociated, re-plated and secondary neurosphere formation was measured on day 21 or 30.
Neurosphere cultures were dissociated to single cell suspensions by pH dissociation followed by filtration through 40 μm screens. For the neurosphere assay, 3,000 cells/ml of defined medium were seeded in 6-well plates. Immediately after plating, cells were treated with DMSO (Research Organics, Cleveland, Ohio) carrier control, TMZ-only, DAPT-only, or TMZ+DAPT. Additional DAPT was added on days 2 and 4. Neurospheres consisting of 10 or more cells were counted under a light microscope on day 7 for the converted cell lines. Primary lines have a slightly longer doubling time and were counted on day 10. […] Neurospheres from the recovery period were counted on day 14 or day 20. […] The number of secondary neurospheres formed by converted cell lines and primary cultures were counted on day 21 or day 30, respectively. […]

[4] = tested on: Hes1; experiment: RT-PCR / qRT-PCR of Notch target Hes1 mRNA in neurosphere cultures after DAPT; format: cell-based, human; settings: for decrease of Hes1 mRNA level: 48 hours after treatment, RT-PCR; for Hes1 expression (qRT-PCR): 1 μM DAPT, 48 hours
Method: TMZ concentrations for each culture were selected based on previous experiments (Mihaliak et al., Cancer Letts. 296, 168-177 (2010)) DAPT and LY concentrations were chosen for each culture based on the decrease in Hes1 and Hey1 expression. RNA was isolated from the cultures 48 hours after DAPT treatment, and Hes1 and Hey1 cDNA expression levels were analyzed by PCR or qPCR.
RT-PCR and RT-qPCR were performed as follows. Neurosphere cultures were pelleted and tumor tissues from subcutaneous xenografts were broken into a powder using a BioPulverizer (Biospec Products, Inc., Bartlesville, Okla.). RNA was isolated from neurosphere cultures and frozen tumor samples using TRIzol Reagent (Invitrogen, Carlsbad, Calif.), following the manufacturer's protocol. RNA was treated with DNase I, Amplification Grade (Invitrogen, Carlsbad, Calif.). cDNA was made using the SuperScript II Reverse Transcription (RT) Kit with Oligo(dT)12-18 primers (Invitrogen, Carlsbad, Calif.), followed by a 20 minute incubation at 37° C. with RNaseH. PCR was carried out using Taq DNA Polymerase, following the manufacturer's protocol (Invitrogen, Carlsbad, Calif.). Real time qPCR was carried out using QuantiTect SYBR Green (QIAGEN, Valencia, Calif.). Hes1 and β-Actin primers were developed using Primer3 (Rozen and Skaletsky, Methods Mol Biol 2000; 132: 365-86). Hes1 forward primer: 5″ […] 3″ (SEQ ID NO:1) and reverse primer: 5″ […] 3″ (SEQ ID NO:2). β-Actin (RT-PCR) forward primer: 5″[…] 3″ (SEQ ID NO:3) and reverse primer: 5″ […] 3″ (SEQ ID NO:4). β-Actin (qRT-PCR) forward primer: 5″[…] 3″ (SEQ ID NO:5) and reverse primer: 5″ […] (SEQ ID NO:6). Primers for Hey1 (Osipo et al., Oncogene 2008; 27: 5019-32), Notch1 (Lefort et al., Genes Dev 2007; 21: 562-77), Notch2 (O'Neill et al., Am J Pathol 2007; 171: 1023-36), Notch3 (Buchler et al., Ann Surg 2005; 242: 791-800, discussion −1) and Notch4 (Buchler et al., Ann Surg 2005; 242: 791-800, discussion −1) were previously published, RT-PCR products were analyzed on 2% agarose gels. tantification of band intensity for DAPT treated lines was determined using ImageJ (Rasband W S. ImageJ, U.S. National Institutes of Health, Bethesda, Md., USA. 1997-2004). cDNA levels for qRT-PCR products were calculated using the PFAFFL method (Pfaffl, Nucleic Acids Res 2001; 29: e45).

SMILES | recovery: increase in neurospheres [1] | mice / xenografts with tumor progression (tumor volume doubled) ([2]; TMZ 20 mg/kg i.p. days 1-2, LY chow day 3 to 12) | average time until tumor volume doubled (progression) ([2]; after treatment, progressing mice only) | mice that succumbed to progression ([2]; in vivo TMZ treatment) | decrease of initial neurosphere formation [3] | decrease of Hes1 mRNA level ([4]; U87NS, DAPT 1 μM) | Hes1 expression (qRT-PCR) ([4]; U87NS-NICD) | Hes1 expression (qRT-PCR) ([4]; U87NS-pMIG) | decrease of Hes1 mRNA level ([4]; U373NS, DAPT 5 μM)
Cn1nnc2c(C(N)=O)ncn2c1=O [TMZ, temozolomide] | 1.9 fold | 8/8 | 23 ± 7 days | 100% | 80-98% |  |  |  | 
C[C@H](NC(=O)Cc1cc(F)cc(F)c1)C(=O)N[C@H](C(=O)OC(C)(C)C)c1ccccc1 [DAPT, N-[N-(3,5-difluorophenacetyl)-L-alanyl]-(S)-phenylglycine t-butyl ester] |  |  |  |  |  | 72% | minimal decrease | decreased | 76%
